From US4513001A, “β-Adrenergic 1-[1-benzimidazolyl]-N-[2-(4-hydroxy-3-methoxy-phenyl)-2-hydroxy-ethyl]- 3-amino butane and salts and hydrates thereof” (priority 1982, dated 1985)
Read-outs that look alike come from different tables or passages of the source.

Tests used:
[1] = system: isolated trachea preparation of the guinea pig; assay: Relaxant activity on isolated tracheal muscle in vitro
Procedure: This activity was studied on an isolated trachea preparation of the guinea pig (chain of tracheal rings, according to CASTILLO and BEER. Journ. Pharmacol. Exp. Ther. 1947 90 104-109), kept alive in a KREBS solution. The effect of cumulative doses on the pressure of the preparation was recorded.
The activity of the substance was expressed by the value of the molar CD50 (decontracting concentration 50=concentration giving 50% of maximum relaxation), of which the negative log. is the value pD2, and by the intrinsic activity corresponding to maximum effect.
These values were determined in parallel for the compound A and Salbutamol, on 6 preparations for each.

histamine bronchospasm [2] = assay: Bronchodilator activity in vivo, anesthetized guinea pig, intravenous (inhibition of histamine bronchospasm, KONZETT); settings: for % inhibition in time: i.v.
Procedure: (§1) 1.2.1 In the anesthesized guinea pig (method of KONZETT. Arch. Exp. Pathol. Pharmakol. 1940 195 71-74)
(§2) A bronchospasm was caused by intravenous histamine injection. The bronchodilator activity was shown by partial or total inhibition of this spasm.
The product studied was administered intravenously or intraduodenaly and histamine injected then at different times to follow the delay in appearance and the duration of the inhibiting effect of the treatment. […]

histamine bronchospasm [3] = assay: Bronchodilator activity in vivo, anesthetized guinea pig, intraduodenal (inhibition of histamine bronchospasm, KONZETT)
Procedure: as §1, §2
The product studied was administered intravenously or intraduodenaly and histamine injected then at different times to follow the delay in appearance and the duration of the inhibiting effect of the treatment.
The results below are the averages of the values obtained in 10 animals.

`COc1cc(C(O)CNC(C)CCn2cnc3ccccc32)ccc1O` (centres unmarked) [Compound A, 1-[1-benzimidazolyl]-N-[2-(4-hydroxy-3-methoxy-phenyl)2-hydroxy-ethyl]3-amino butane basic sulphate, dihydrate] was tested, and the “Maximum response (decontraction)” value ([1]; 6 preparations) was 390 mg, the Emax ([1]; Cavia porcellus, 6 preparations, Salbutamol 1.00, read-out: Intrinsic activity) was 109% and the EC50 ([1]; Cavia porcellus, 6 preparations, read-out: CD50 (decontracting concentration 50, concentration giving 50% of maximum relaxation)) was 71 nM. For the same molecule, the EC50 ([1]; Cavia porcellus, negative log of molar CD50, 6 preparations, read-out: pD2 (converted)) was 70.8 nM, the “Activity on the tracheal muscle (comparison with Salbutamol)” value ([1]; in vitro, in words) was “very close to that of Salbutamol” and the “% inhibition in time” value (histamine bronchospasm [2]; 0.08 μg base/kg, 1 min) was 1%. The “% inhibition in time” value (histamine bronchospasm [2]; 0.08 μg base/kg, 5 min) was 1%, the “% inhibition in time” value (histamine bronchospasm [2]; 0.08 μg base/kg, 10 min) was 0% and the “% inhibition in time” value (histamine bronchospasm [2]; 0.08 μg base/kg, 15 min) was 0%. For the same molecule, the “% inhibition in time” value (histamine bronchospasm [2]; 0.25 μg base/kg, 1 min) was 9%, the “% inhibition in time” value (histamine bronchospasm [2]; 0.25 μg base/kg, 5 min) was 1% and the “% inhibition in time” value (histamine bronchospasm [2]; 0.25 μg base/kg, 10 min) was 0%. The “% inhibition in time” value (histamine bronchospasm [2]; 0.25 μg base/kg, 15 min) was 0%, the “% inhibition in time” value (histamine bronchospasm [2]; 0.8 μg base/kg, 1 min) was 36% and the “% inhibition in time” value (histamine bronchospasm [2]; 0.8 μg base/kg, 5 min) was 3%. The “% inhibition in time” value (histamine bronchospasm [2]; 0.8 μg base/kg, 10 min) was 2%, the “% inhibition in time” value (histamine bronchospasm [2]; 0.8 μg base/kg, 15 min) was 3% and the “% inhibition in time” value (histamine bronchospasm [2]; 2.5 μg base/kg, 1 min) was 66%. For the same molecule, the “% inhibition in time” value (histamine bronchospasm [2]; 2.5 μg base/kg, 5 min) was 13%, the “% inhibition in time” value (histamine bronchospasm [2]; 2.5 μg base/kg, 10 min) was 8% and the “% inhibition in time” value (histamine bronchospasm [2]; 2.5 μg base/kg, 15 min) was 8%. For the same molecule, the “% inhibition in time” value (histamine bronchospasm [2]; 8 μg base/kg, 1 min) was 73%, the “% inhibition in time” value (histamine bronchospasm [2]; 8 μg base/kg, 5 min) was 17% and the “% inhibition in time” value (histamine bronchospasm [2]; 8 μg base/kg, 10 min) was 12%. The “% inhibition in time” value (histamine bronchospasm [2]; 8 μg base/kg, 15 min) was 8%, the “% inhibition in time” value (histamine bronchospasm [2]; 25 μg base/kg, 1 min) was 92% and the “% inhibition in time” value (histamine bronchospasm [2]; 25 μg base/kg, 5 min) was 52%. For the same molecule, the “% inhibition in time” value (histamine bronchospasm [2]; 25 μg base/kg, 10 min) was 38%, the “% inhibition in time” value (histamine bronchospasm [2]; 25 μg base/kg, 15 min) was 28% and the “% inhibition in time” value (histamine bronchospasm [2]; 84 μg base/kg, 1 min) was 92%. The “% inhibition in time” value (histamine bronchospasm [2]; 84 μg base/kg, 5 min) was 80%, the “% inhibition in time” value (histamine bronchospasm [2]; 84 μg base/kg, 10 min) was 70% and the “% inhibition in time” value (histamine bronchospasm [2]; 84 μg base/kg, 15 min) was 63%. For the same molecule, the “% inhibition in time” value (histamine bronchospasm [2]; 84 μg base/kg, 30 min) was 51%, the “% inhibition in time” value (histamine bronchospasm [2]; 84 μg base/kg, 45 min) was 36% and the “% inhibition in time” value (histamine bronchospasm [2]; 84 μg base/kg, 60 min) was 21%. The “Bronchodilator activity (comparison with Salbutamol)” value (histamine bronchospasm [2]; intravenous, in words) was “activity of the same order, although very slightly less for compound A at low doses; at the highest dose, the effect is intense and lasting, the compound A had an activity at least equal to that of Salbutamol”, the “% inhibition in time” value (histamine bronchospasm [3]; 0.25 mg base/kg, 1 min) was 11% and the “% inhibition in time” value (histamine bronchospasm [3]; 0.25 mg base/kg, 5 min) was 27%. The “% inhibition in time” value (histamine bronchospasm [3]; 0.25 mg base/kg, 15 min) was 26%, the “% inhibition in time” value (histamine bronchospasm [3]; 0.25 mg base/kg, 30 min) was 26% and the “% inhibition in time” value (histamine bronchospasm [3]; 0.25 mg base/kg, 45 min) was 19%. The “% inhibition in time” value (histamine bronchospasm [3]; 0.25 mg base/kg, 60 min) was 13%, the “% inhibition in time” value (histamine bronchospasm [3]; 0.25 mg base/kg, 90 min) was 9% and the “% inhibition in time” value (histamine bronchospasm [3]; 0.8 mg base/kg, 1 min) was 16%. For the same molecule, the “% inhibition in time” value (histamine bronchospasm [3]; 0.8 mg base/kg, 5 min) was 60%, the “% inhibition in time” value (histamine bronchospasm [3]; 0.8 mg base/kg, 15 min) was 61% and the “% inhibition in time” value (histamine bronchospasm [3]; 0.8 mg base/kg, 30 min) was 44%. The “% inhibition in time” value (histamine bronchospasm [3]; 0.8 mg base/kg, 45 min) was 29% and the “% inhibition in time” value (histamine bronchospasm [3]; 0.8 mg base/kg, 60 min) was 23%.
